According to PMC10961714, “Novel chemotype NLRP3 inhibitors that target the CRID3-binding pocket with high potency” (Life Science Alliance, 2024):

Columns and labels:
carbonic anhydrase I = target: T1, carbonic anhydrase I (Homo sapiens, UniProt P00915); assay: p-NPA esterase activity assay with […] compound; assay type: biochemical
T1 construct: gene CA1; recombinant carbonic anhydrase I (C4396, Sigma-Aldrich)

carbonic anhydrase II = target: T2, carbonic anhydrase II (Homo sapiens, UniProt P00918); assay: p-NPA esterase activity assay with […] compound; assay type: biochemical
T2 construct: gene CA2; CA II (C6165, Sigma-Aldrich)

NLRP3 = target: T3, NLRP3 (Homo sapiens, UniProt Q96P20); assay: NanoBRET target engagement (tracer displacement) in live HEK293 cells; assay type: cell-based
T3 construct: full-length NLRP3-Nanoluc fusion protein
T3 sequence (Q96P20 whole entry, the tested form may be a part): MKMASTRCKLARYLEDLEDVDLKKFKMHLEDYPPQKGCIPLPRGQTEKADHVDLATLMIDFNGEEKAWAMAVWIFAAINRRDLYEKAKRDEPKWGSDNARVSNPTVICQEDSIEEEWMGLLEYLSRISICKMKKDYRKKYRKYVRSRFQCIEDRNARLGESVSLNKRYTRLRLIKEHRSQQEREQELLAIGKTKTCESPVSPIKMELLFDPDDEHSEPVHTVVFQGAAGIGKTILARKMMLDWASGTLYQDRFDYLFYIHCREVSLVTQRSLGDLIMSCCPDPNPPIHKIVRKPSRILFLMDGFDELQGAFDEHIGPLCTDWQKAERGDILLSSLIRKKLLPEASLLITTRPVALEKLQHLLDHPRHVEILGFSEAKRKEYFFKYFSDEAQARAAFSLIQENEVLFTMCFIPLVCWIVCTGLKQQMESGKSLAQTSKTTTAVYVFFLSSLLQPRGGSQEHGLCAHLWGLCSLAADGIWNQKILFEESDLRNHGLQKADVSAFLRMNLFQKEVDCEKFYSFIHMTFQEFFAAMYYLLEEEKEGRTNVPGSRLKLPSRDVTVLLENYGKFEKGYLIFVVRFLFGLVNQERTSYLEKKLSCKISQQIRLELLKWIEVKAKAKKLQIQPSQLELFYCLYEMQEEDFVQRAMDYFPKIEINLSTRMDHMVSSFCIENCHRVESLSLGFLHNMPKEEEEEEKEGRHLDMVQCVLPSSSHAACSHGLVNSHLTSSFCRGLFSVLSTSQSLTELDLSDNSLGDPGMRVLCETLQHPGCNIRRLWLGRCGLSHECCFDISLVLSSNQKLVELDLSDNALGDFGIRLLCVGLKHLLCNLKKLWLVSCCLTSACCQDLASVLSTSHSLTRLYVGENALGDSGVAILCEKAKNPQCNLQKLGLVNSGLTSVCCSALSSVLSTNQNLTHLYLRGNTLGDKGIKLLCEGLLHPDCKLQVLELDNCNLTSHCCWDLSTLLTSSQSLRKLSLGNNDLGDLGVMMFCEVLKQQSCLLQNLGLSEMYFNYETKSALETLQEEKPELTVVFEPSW

T1 sequence (P00915 2-261): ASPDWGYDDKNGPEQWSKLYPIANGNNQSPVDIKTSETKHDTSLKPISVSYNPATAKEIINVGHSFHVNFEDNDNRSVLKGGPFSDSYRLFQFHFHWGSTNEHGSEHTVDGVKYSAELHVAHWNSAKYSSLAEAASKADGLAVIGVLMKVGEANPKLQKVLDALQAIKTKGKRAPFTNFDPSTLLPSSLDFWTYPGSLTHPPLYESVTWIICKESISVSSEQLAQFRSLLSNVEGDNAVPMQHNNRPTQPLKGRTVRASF

Row | IC50 (NLRP3) [nM] | SMILES | p-NPA esterase activity assay with 100 μM compound (carbonic anhydrase I) | p-NPA esterase activity assay with 100 μM compound (carbonic anhydrase II)
1 | – | CC(C)(O)c1coc(S(=O)(=O)NC(=O)Nc2c3c(cc4c2CCC4)CCC3)c1 [CRID3] | observed significant inhibition of the related enzyme carbonic anhydrase I as well | We confirmed this off-target activity of CRID3 in our studies
2 | 212 | CC(C)(O)c1nn(CC(=O)Nc2ccncn2)c(=O)c2cc3sc(Cl)cc3n12 [NIC-11] | – | –
3 | 131 | CC(C)c1nn(CC(=O)N[C@@H]2CCCN(CC3CC3)C2)c(=O)c2cc3sc(Cl)cc3n12 [NIC-12] | – | –
